The results in this text go back to patent US11197856B2, “Bicyclic compounds and methods for their use in treating autism” (priority 2013, dated 2021).

Experiment [1] relates to growth-associated protein-43 (GAP-43). Description: PBBI in rats: GAP-43 immunohistochemistry in hippocampus. Format: in vivo, Sprague-Dawley rats. Particulars: 30 mg/kg oral once daily. How it is done:
The methods for producing PBBI in this Example is the same as described above for Example 26. Adult Sprague-Dawley rats were randomly assigned into three groups: sham (craniotomy only), PBBI+vehicle (i.e. H2O), and PBBI+cG-2-AllylP. cG-2-AllylP (or vehicle) was administered via oral gavage at 30 mg/kg at 30 min post-injury and continued once daily thereafter for 7, 14 or 28 days. At each treatment endpoint, rats were perfused and brains were processed for histological analysis (n=5-6/group/time-point). For detection of axonal sprouting, immunohistochemical detection of growth-associated protein-43 (GAP-43) was employed. Synaptogenesis was determined by immunohistochemistry for synaptophysin (SYN). For histological quantification, the integrated density in the hippocampal region was determined using NIH ImageJ software.

Another experiment has as its system Akt. Description: Phosphorylated AKT by Western blot. It counts as in vivo, mice. The settings on record: full brain lysates; fmr1-knockout animals; normalized to GAPDH. The protocol: Phosphorylation levels of ERK1/2 and Akt of full brain lysates were evaluated using Western blots. The mice were sacrificed and the brains removed 12 days after the last injection, and immediately after the last behavioral test. Other studies measured pERK and pAkt in blood lymphocytes. The results of Western analysis were normalized to the amount of GAPDH protein seen in each blot.

In the next experiment the test system is Aged rats. Description: Novel Object Recognition Test (NORT) in aged rats. The settings on record: 27 days after single 20 ng/animal i.c.v. Format: in vivo, male Wistar rats. How it is done: Aged rats (male Wistar rats, 18-20 months old) were divided into four groups: two vehicle-treated (groups 1 and 3) and two G-2-AllylP treated (groups 2 and 4) (all groups n=6-8). Cyclic G-2-AllylP was synthesised by the Department of Medicinal Chemistry and dissolved in normal saline before the treatment. On day 1 a single dose of cyclic G-2-AllylP was given centrally (20 ng/animal, i.c.v.) to the animals in groups 2 and 4; saline was administered to groups 1 and 3. The memory tests using Novel Object Recognition Test started either on day 3 (groups 1 and 2) or 24 (groups 3 and 4) after the treatment. On the completion of the NORT, the rats were killed with an overdose of sodium pentobarbital and were perfused transcardially with normal saline followed by 10% formalin. Tissues collected at day 7 in groups 1 and 2, and at day 28 from groups 3 and 4. The brains were kept in the same fixative for a minimum of 2 days before being processed using a standard paraffin embedding procedure. Briefly, small blocks (10×10×3 mm) of tissue were fixed for up to 24 hrs. The blocks were then infiltrated and embedded with paraffin and cut in ribbons and mounted on slides. Slides were then stored until immunostaining was commenced. Synaptogenesis in brain tissue was examined using immunohistochemical staining. […]

A further experiment has as its system MeCP2 deficient mice. Description: Seizure activity, electroencephalograph recordings in MeCP2 deficient mice. Format: in vivo. The source says:
Electroencephalograph: recordings of wild-type mice and MeCP2 deficient mice treated with either saline or cG-2-AllylP are obtained using methods described in U.S. Pat. No. 7,714,020, incorporated fully by reference.

The next experiment relates to Krox24. Description: Krox24 immunohistochemical staining of hippocampus. It counts as in vivo, male Wistar rats. The settings on record: CA1-2 regions; vs vehicle. The protocol:
(§1) Aged rats (male Wistar rats, 18-20 months old) were divided into four groups: two vehicle-treated (groups 1 and 3) and two G-2-AllylP treated (groups 2 and 4) (all groups n=6-8). Cyclic G-2-AllylP was synthesised by the Department of Medicinal Chemistry and dissolved in normal saline before the treatment. On day 1 a single dose of cyclic G-2-AllylP was given centrally (20 ng/animal, i.c.v.) to the animals in groups 2 and 4; saline was administered to groups 1 and 3. The memory tests using Novel Object Recognition Test started either on day 3 (groups 1 and 2) or 24 (groups 3 and 4) after the treatment. On the completion of the NORT, the rats were killed with an overdose of sodium pentobarbital and were perfused transcardially with normal saline followed by 10% formalin. Tissues collected at day 7 in groups 1 and 2, and at day 28 from groups 3 and 4. The brains were kept in the same fixative for a minimum of 2 days before being processed using a standard paraffin embedding procedure. Briefly, small blocks (10×10×3 mm) of tissue were fixed for up to 24 hrs. The blocks were then infiltrated and embedded with paraffin and cut in ribbons and mounted on slides. Slides were then stored until immunostaining was commenced. Synaptogenesis in brain tissue was examined using immunohistochemical staining.
The neuronal transcript factor Krox24 staining is used as a marker for neuronal plasticity. […]

Another experiment concerns synaptophysin. Description: Synaptophysin immunohistochemical staining of hippocampus. It counts as in vivo, male Wistar rats. Particulars: for density of synaptophysin staining: 28 days post-treatment. How it is done: as §1
Synaptophysin is a presynaptic vesicle protein. Its quantitative detection is established as a molecular marker of synaptic density.
Conventional deparaffinisation and rehydration techniques were used to allow the water-based buffers and antibodies to penetrate the tissue slices. Antigen retrieval was used only prior to AMPA receptor (GluR1) staining, i.e. the slides were placed in boiling citrate buffer and allowed to cool.
The following antibodies were used: • i) primary rabbit antibody to NMDA NR1 subunit, at 1:200 concentration in buffer, incubated for 48 hrs (Chemicon—AB1516), followed by Sigma fluorescent secondary antibody (alexaFluor 394), at 1:200 dilution, incubated for 24 hours at 40C. • ii) primary antibody to AMPA GluR1 subunit, at 1:30 concentration in buffer, incubated for 48 hrs (Chemicon—AB1504) followed by 3,3′-diaminobenzidine (DAB) at 1:200 dilution, incubated for 24 hours at 40C. • iii) Primary antibody to mSynaptophysin (Sigma—S5768), at 1:200 concentration in buffer, followed by DAB at 1:200 dilution, incubated for 24 hours at 40C. • iv) Primary antibody to rKrox-24 (Santa Cruz—catalogue number SC-189) at 1:200 concentration in the buffer, followed by anti-rabbit secondary antibody at concentration of 1:200 dilution, incubated for 24 hours at 40C. • y) Antibodies were detected using light microscopy.
We subsequently analysed effect of cG-2AllylP on the levels of synaptophysin staining in CA3 and CA1 regions of the hippocampus.

Regarding `C=CC[C@]12CCCN1C(=O)CNC2=O` [cG-2-AllylP, (8aS)-Allyl-hexahydropyrrolo[1,2-a]pyrazine-1,4-dione], the “injury-induced reduction in GAP-43 expression” value in experiment [1] (7d or 14d post-PBBI) was “no effect on injury-induced reductions”. Further, the “PBBI-induced reduction in GAP-43 expression” value in experiment [1] (28 days post-injury) is reported as “attenuated PBBI-induced reductions”. The “phosphorylated AKT” value in the experiment with Akt is “about 0.9 UA units”. In the experiment with Aged rats, the “novelty recognition (NORT)” value was “trend to improve the novelty recognition”. Further, in the experiment with MeCP2 deficient mice, the “motor seizures and non-convulsive seizures” value was “effective in decreasing both motor seizures and non-convulsive seizures”. Also, in the experiment with Krox24, the “density of the Krox24 staining” value was “trend towards the increased density”. The “density of synaptophysin staining” value is reported as “clear trend towards” in the experiment on synaptophysin (CA1 strata oriens and radiatum); “significant increase” with synaptophysin (CA3). The “density of pre-synaptic stain (FIG. 6)” value with synaptophysin (CA3 region, day 24 post-treatment) is reported as “trend to increase the density of pre-synaptic stain”. In the experiment on synaptophysin (stratum oriens of CA1, day 24 post-treatment), the “density of pre-synaptic stain (FIG. 7)” value is recorded as “trend to increase the density of the pre-synaptic stain”. In addition, in the experiment on synaptophysin (stratum radiatum of CA1, day 24 post-treatment), the “density of pre-synaptic stain (FIG. 8)” value is recorded as “increase the density of the pre-synaptic stain”.
